Legend:
Format in all cases: cell-based
caspase 3/7 = assay: Expression of caspase 3/7 (luminescence assay)
Experimental: NCI-H660 and LNCaP cells were seeded on black transparent bottom 96-well plates at a density of 10^4 cells/well. After 24 hours, the cells were treated with CRISPR ERG, crisprTMPRSS2-ERG, and 30 μM casodex, respectively, for 48 hours. 50 μL of a caspase 3/7 assay buffer (Promega, USA) was added thereto, followed by incubation at room temperature for 1 hour. Then, the activity of caspase 3/7 was detected by measuring luminescence.

TMPRSS2-ERG gene = assay: Expression of TMPRSS2-ERG gene by RNA extraction, cDNA synthesis and PCR; settings: CRISPR treated in combination with 30 μM casodex, 48 hours (FIG. 2C)
Experimental: To identify whether the ERG gene of the cell line prepared in Example 2 was knocked out, expression of the gene was identified by extracting RNA and synthesizing cDNA.
NCI-H660 and LNCaP cell lines were seeded on 6-well plates at a density of 2×10^5 cells/well. After 24 hours, the cells were treated with CRISPR ERG, CRISPR TMPRSS2-ERG, and 30 μM casodex, respectively, for 48 hours. 1 mL of Trizol was added thereto to lyse the cells and the samples were homogenized by voltexing. 100 μL of chloroform was added thereto to separate RNA included in a transparent upper aqueous layer from proteins included in a lower organic layer. The solution was vigorously shaken and incubated at room temperature for 3 minutes. The resultant was centrifuged at 4° C. for 15 minutes at 13,000 rpm to obtain a clean aqueous layer including total RNA. Subsequently, the supernatant of the sample was transferred to a new tube and […] of isopropanol was added to each sample to precipitate RNA. The sample was incubated at room temperature for 10 minutes, and then centrifuged at 13,000 rpm at 4° C. for 15 minutes to obtain pellets of total RNA. Then, the supernatant was decanted and RNA was washed with 1 mL of 75% ethanol. […] RNA was resuspended in RNase-free water and absorbance of RNA was measured at 260 nm to determine a concentration of RNA. […]

NCI-H660 cells = assay: Cell viability, CellTiter 96 aqueous one solution cell proliferation assay
Experimental: (§1) NCI-H660 and LNCaP cells were seeded on transparent 96-well plates at a density of 10^4 cells/well. […] 10 μL of a CellTiter 96 aqueous one solution cell proliferation assay buffer (Promega, USA) was added thereto, followed by incubation at 37° C. for 1 hour. Then, cell viability was evaluated by measuring absorbance at […].
(§2) NCI-H660 and LNCaP cells were seeded on transparent 96-well plates at a density of 10^4 cells/well. After 24 hours, the cells were treated with CRISPR ERG, CRISPR TMPRSS2-ERG, and 30 μM casodex, respectively, for 48 hours. 10 μL of a CellTiter 96 aqueous one solution cell proliferation assay buffer (Promega, USA) was added thereto, followed by incubation at 37° C. for 1 hour. Then, cell viability was evaluated by measuring absorbance at […].

LNCaP cells = assay: as above
Experimental: as §1, §2

[1] = system: alpha tubulin, beta3 tubulin; assay: Activity of tubulin protein (Western blotting); settings: LNCaP cells, knock-out (FIG. 4)
Experimental: NCI-H660 and LNCaP cell lines were seeded on 6-well plates at a density of 2×10^5 cells/well. After 24 hours, the cells were treated with CRISPR ERG, CRISPR TMPRSS2-ERG, and 30 μM casodex, respectively, for 48 hours. The cells were lysed using Pro-prep protein extraction solution (Intron Biotechnology, South Korea). Cell lysates were quantified using a BCA protein assay kit (Thermo Fisher Scientific, USA).
Then, the expression of proteins was identified by Western blotting. Specifically, SDS 5× loading buffer was added to protein samples diluted to 10-20 μg and heated for 5 minutes. The samples were placed in 4-20% Mini-protean TGX gel (Biorad, USA) and run at 120 V for 60 minutes. Then, the gel was transferred to a nitrocellulose membrane at 300 mA for 90 minutes. The membrane was blocked by 3% BSA in PBS and incubated overnight with a primary antibody in PBS containing 1% BSA at 4° C. The membrane was washed three times with PBS containing with 0.01% Tween 20. A secondary antibody was cultured in a PBS containing 1% BSA for 1 hour at room temperature. The membrane was washed three times with PBS containing 0.01% Tween 20. Then, the membrane was visualized with LAS-3000 (Fujifilm, Japan).

pgp = assay: Expression of Pgp (pgp-glo assay, ATP level by luminescence)
Experimental: NCI-H660 and LNCaP cells were seeded on white transparent bottom 96-well plates at a density of 10^4 cells/well. After 24 hours, the cells were treated with CRISPR ERG, crisprTMPRSS2-ERG, and 30 μM casodex, respectively, for 48 hours. 20 μL of a pgp-glo assay buffer (Promega, USA) was added to all wells except for Na3VO4 condition. 20 μL of 0.25 mM Na3VO4 was added to the Na3VO4 condition. Reaction was initiated by adding 10 μL of 25 mM MgATP. The plates were mixed for a while and then incubated at 37° C. for 40 minutes. The 40 μL of an ATP detection reagent was added to all wells. Then, the plates were incubated at room temperature for 20 minutes and luminescence was measured.

[2] = LNCaP cells, knock-out in combination with 30 μM casodex (FIG. 3C)
[3] = normal and resistant LNCaP cells, knock-out alone (FIG. 3C)

CC(O)(CS(=O)(=O)c1ccc(F)cc1)C(=O)Nc1ccc(C#N)c(C(F)(F)F)c1 (stereo not drawn) [casodex]
expression of caspase 3/7 (caspase 3/7; 30 μM casodex in combination with CRISPR TMPRSS2-ERG, 48 hours, compared with CRISPR TMPRSS2-ERG alone (FIG. 2D)): more significantly increased | expression level of TMPRSS2-ERG gene (TMPRSS2-ERG gene; LNCaP cell line): significantly reduced | expression level of TMPRSS2-ERG gene (TMPRSS2-ERG gene; NCI-H660 cell line): significantly reduced | cell viability (NCI-H660 cells; 30 μM casodex in combination with CRISPR TMPRSS2-ERG, 48 hours, compared with CRISPR TMPRSS2-ERG alone (FIG. 2B)): significantly reduced | cell viability (NCI-H660 cells; casodex concentration in the range of 100 μM to 200 μM (FIG. 2B)): significantly reduced | cell viability (LNCaP cells; 30 μM casodex in combination with CRISPR TMPRSS2-ERG, 48 hours, compared with CRISPR TMPRSS2-ERG alone (FIG. 2A)): significantly reduced | cell viability (LNCaP cells; casodex concentration in the range of 100 μM to 200 μM (FIG. 2A)): significantly reduced

CRISPR ERG: CRISPR sgRNA for ERG, 5′TGCCTACGGAACGCCACACCTGG 3′, delivered with Cas9 nuclease to knock out ERG (listed as DNA, chemistry not given here; the letters are possibly those of the target site)
amount of polymeric alpha tubulin [1]: decreased | amount of water-soluble alpha tubulin [1]: increased | beta3 tubulin [1]: no significant difference | ATP level (pgp; [2]): significantly increased | ATP level (pgp; [3]): significantly increased

CRISPR TMPRSS2-ERG: CRISPR sgRNA for TMPRSS2-ERG, 5′AAGGCTTCCTGCCGCGCTCCAGG 3′, delivered with Cas9 nuclease to knock out TMPRSS2-ERG (listed as DNA, chemistry not given here; the letters are possibly those of the target site)
expression of caspase 3/7 (caspase 3/7; cell line treated with CRISPR TMPRSS2-ERG alone, 48 hours (FIG. 2D)): significantly increased | amount of polymeric alpha tubulin [1]: decreased | amount of water-soluble alpha tubulin [1]: increased | beta3 tubulin [1]: no significant difference | ATP level (pgp; [2]): significantly increased | ATP level (pgp; [3]): significantly increased

Reference: patent US20200123271A1, “COMPOSITION FOR ENHANCING SENSITIVITY OF PROSTATE CANCER TO ANTICANCER DRUG AND USE THEREOF” (KOREA INSTITUTE OF SCIENCE AND TECHNOLOGY, priority 2018, published 2020)
